Experiments:
pepsin = experiment: Pepsin activity in gastric juice of pylorus-ligated rats (Mett tube method); type: in vivo, Wister rats; conditions: for activity of pepsin: n = 8, X ± S; for Inhibition ratio for pepsin activity: versus control group
Method: (§1) Wister rats (200–250 g), half were male and half were female, were starved for 48 hours and the pylori were ligated. Immediately after ligation, a suspension or solution of a salt in distilled water was administered orally into the stomachs in an amount of 2.0 ml/Kg; while 0.5% MC of the same volume was given to the control group. After administration of the test salt for 5 hours, the rats were killed. Their cardias were ligated and their stomachs were taken out. The gastric juice was collected into centrifuge tube and centrifuged at 2500 rpm for 10 min, the volume after residue removed was recorded as the total volume of the gastric juice. The acidity of gastric juice and pepsin activity were measured with the supernatant of the gastric juice after centrifuging.
(b) Enzyme assay for pepsin (Mett tube method): 0.5 ml of gastric juice was added exactly into a clean 50 ml flask with a plug, the flask was shaken to get a homogeneous solution, then, 15.0 ml of 0.05 N HCL solution was added in, in the meantime, two 3.0–4.0 cm long Mett tubes were put inside. The flask was plugged, shaken to get a homogeneous solution, left to stand at 37° C. for 24 hours. The length (mm) of the transparent part at the two ends of each Mett tube was measured precisely to get four values. The mean value was based on the four values, and the pepsin activity was calculated. Inhibiting ratio of pepsin activity %=[(pepsin activity of the control group−pepsin activity of the treatment group)/pepsin activity of the control group]×100% Test Result: […]

[1] = system: gastric juice secretion of Pylorus-ligated rats; experiment: Gastric juice secretion and acidity of pylorus-ligated rats after oral administration; type: in vivo, Wister rats; parameters: T.AC / MEL (10^3) / MEAH: unit not given here; conditions: for Total volume of gastric juice: 5 hours after pylorus ligation; for Total volume of gastric juice / MEL (10^3) / MEAH: n = 8, X ± S; for Inhibition ratio for total acid amount / Inhibition to gastric juice secretion: versus control group; for MEL (10^3): acid concentration of gastric juice; for MEAH: total acid amount in gastric juice; for T.AC: volume of 0.01 N NaOH to titrate to pH 7, n = 8, X ± S
Method: as §1
(a) Measurement of the acidity of gastric juice: with 0.5 ml of gastric juice taken exactly, about 20 ml of distilled water added in, it was measured with pH meter. The mixture was titrated to pH 7 with 0.01 N NaOH solution, and the volume of 0.01 N NaOH solution used was recorded. Then, the volume (T.AC) was calculated corresponding to titrating to pH 7 with 0.01 N NaOH solution. Acid concentration of gastric juice (MEL)=(T.AC/2)×1000 Total acid amount in gastric juice (MEAH)=MEL×(total volume of gastric juice/1000) Inhibiting ratio on the secretion of gastric juice %=[(volume of the gastric juice of the control group−volume of the gastric juice of the treatment group)/volume of the gastric juice of the control group]×100% Inhibiting ratio on the total acid amount in gastric juice %=[(MEAH of the control group−MEAH of the treatment group)/MEAH of the control group]×100%

KunMing mice = experiment: Acute toxicity of NIPWZ, oral administration to mice (LD50, Bliss's method); type: in vivo; conditions: for Death distribution 2 h / Death distribution 4 h / Death distribution 24 h / Death distribution 72 h / Number of death (F:M) / Ratio of death: 10 mice
Method: 50 second grade KunMing mice were provided, each weighing 20.0±1.2 g, randomly divided into 5 groups, 10 for each group, 5 male and 5 female. Medicine was administered intra-gastrically by 40 ml/Kg once, the solvent was 0.5% MC. The doses for the 5 groups were: 4480 mg/Kg, 3000 mg/Kg, 2010 mg/Kg, 1350 mg/Kg, 910 mg/Kg, the ratio of any two abutted doses was 1:0.67. […] Wherein the LD50 was determined by Bliss's method.

## Salts of Sulfodehydroabietic Acid with Bismuth [NIPWB]
pepsin; oral 50 mg/Kg
  activity of pepsin: 0.74 ± 0.61 U
  Inhibition ratio for pepsin activity: 50.0%
pepsin; oral 100 mg/Kg
  activity of pepsin: 0.36 ± 0.20 U
  Inhibition ratio for pepsin activity: 75.7%
[1]; oral 50 mg/Kg
  Total volume of gastric juice: 6.5 ± 2.5 mL
  Inhibition ratio for total acid amount: 45.7%
  Inhibition to gastric juice secretion: 28.6%
  MEL (10^3): 2.42 ± 1.79
  MEAH: 15.9 ± 4.5
  T.AC: 4.85 ± 3.58
[1]; oral 100 mg/Kg
  Total volume of gastric juice: 7.6 ± 2.9 mL
  Inhibition ratio for total acid amount: 44.4%
  Inhibition to gastric juice secretion: 16.5%
  MEL (10^3): 2.16 ± 1.65
  MEAH: 16.3 ± 4.7
  T.AC: 4.32 ± 3.30

## Salts of Sulfodehydroabietic Acid with Zinc [NIPWZ]
KunMing mice; mice, oral 910 mg/Kg
  Death distribution 2 h: 0
  Death distribution 4 h: 0
  Death distribution 24 h: 0
  Death distribution 72 h: 0
  Number of death (F:M): 0 (0:0)
  Ratio of death: 0%
KunMing mice; mice, oral 1350 mg/Kg
  Death distribution 2 h: 0
  Death distribution 4 h: 0
  Death distribution 24 h: 3
  Death distribution 72 h: 1
  Number of death (F:M): 4 (1:3)
  Ratio of death: 40%
KunMing mice; mice, oral 2010 mg/Kg
  Death distribution 2 h: 0
  Death distribution 4 h: 0
  Death distribution 24 h: 7
  Death distribution 72 h: 0
  Number of death (F:M): 7 (5:2)
  Ratio of death: 70%
KunMing mice; mice, oral 3000 mg/Kg
  Death distribution 2 h: 0
  Death distribution 4 h: 7
  Death distribution 24 h: 1
  Death distribution 72 h: 0
  Number of death (F:M): 8 (5:3)
  Ratio of death: 80%
KunMing mice; mice, oral 4480 mg/Kg
  Death distribution 2 h: 7
  Death distribution 4 h: 3
  Death distribution 24 h: 0
  Death distribution 72 h: 0
  Number of death (F:M): 10 (5:5)
  Ratio of death: 100%
KunMing mice; mice, oral administration, Bliss's method
  LD50: 1728 mg/kg
KunMing mice; taking 1000 mg/day for a 60 Kg human being
  LD50 as multiple of the clinic dose: approximately 104 times
pepsin; oral 50 mg/Kg
  activity of pepsin: 0.88 ± 0.33 U
  Inhibition ratio for pepsin activity: 40.5%
pepsin; oral 100 mg/Kg
  activity of pepsin: 0.66 ± 0.34 U
  Inhibition ratio for pepsin activity: 55.4%
[1]; oral 50 mg/Kg
  Total volume of gastric juice: 7.2 ± 2.9 mL
  Inhibition ratio for total acid amount: 52.9%
  Inhibition to gastric juice secretion: 20.9%
  MEL (10^3): 1.92 ± 1.47
  MEAH: 13.8 ± 4.2
  T.AC: 3.83 ± 2.93
[1]; oral 100 mg/Kg
  Total volume of gastric juice: 7.0 ± 3.1 mL
  Inhibition ratio for total acid amount: 47.1%
  Inhibition to gastric juice secretion: 23.1%
  MEL (10^3): 2.21 ± 1.32
  MEAH: 15.5 ± 4.1
  T.AC: 4.41 ± 2.64
